Results from patent US20250186463A1, “ABIRATERONE DECANOATE PRODRUGS AND USE IN THERAPY” (PROPELLA THERAPEUTICS, INC., priority 2022, published 2025).

Assays:
[1] = IM injection of abiraterone acetate formulations in rats; assay type: in vivo; conditions: vegetable oil solution versus aqueous suspension
Procedure: Typically, the abiraterone prodrugs of the present disclosure are formulated as a non-aqueous solution or suspension. In some embodiments, the non-aqueous solution or suspension provides higher levels of abiraterone in the plasma for a longer duration, when compared to an aqueous solution or suspension. For example, as detailed herein, IM injections of an aqueous suspension and a vegetable oil solution of the abiraterone acetate prodrug were evaluated in rats. […] Accordingly, in some embodiments, the abiraterone prodrug formulations herein can include an abiraterone prodrug of the present disclosure (e.g., compound of Formula I or II) dissolved or dispersed in a pharmaceutically acceptable carrier. In some embodiments, the pharmaceutically acceptable carrier can be any suitable nonaqueous vehicle suitable for injection, such as those described in U.S. Pharmacopeia. In some embodiments, the pharmaceutically acceptable carrier can be a pharmaceutically acceptable oil, e.g., a vegetable oil, castor oil, corn oil, sesame oil, cottonseed oil, peanut oil, poppy seed oil, tea seed oil, or soybean oil. In some embodiments, the pharmaceutically acceptable oil can be oils (e.g., described herein), suitable for use as vehicles for injection, e.g., meeting the criteria as described in the corresponding U.S. Pharmacopeia monograph. […]

[2] = system: mineralocorticoids, progesterone and pregnenolone; conditions: cited from earlier work

CC(=O)O[C@H]1CC[C@@]2(C)C(=CC[C@@H]3[C@@H]2CC[C@]2(C)C(c4cccnc4)=CC[C@@H]32)C1 [abiraterone acetate, (3)-17-(3-Pyridyl)androsta-5, acetate]
blood plasma levels and duration of exposure of abiraterone [1]: highest blood plasma levels and the longest duration of exposure | increases in concentrations of mineralocorticoids ([2]; oral administration): 80 fold | men with signs and symptoms of mineralocorticoid excess (hypertension, hypokalemia, edema) ([2]; oral administration): 30% | increases in progesterone and pregnenolone ([2]; oral regimen): 40 fold
